Measured values published in patent publication US20090062388A1, “Use of acetyl L-carnitine for the preparation of a medication for the preventive therapy for pain” (Sigma-Tau Industrie Farmaceutiche Riunite S.p.A., priority 2001, published 2009).
Where two headings read alike, the source gives them in different places.

System: mice
Format: in vivo
Settings: for antagonism of the analgesia induced by acetyl L-carnitine: acetyl L-carnitine 100 mg/kg BID SC for 7 days, hot plate; for Hot plate Licking latency: antagonist pre-treatment + PS (no acetyl L-carnitine)
Experimental: The analgesia induced by the acetyl L-carnitine (100 mg/kg BID, SC for 7 days) was determined in presence of some antagonists of some neurotransmission systems deeply involved in the regulation of pain threshold, and in particular the naloxone (opioid antagonist), the CGP-35348 (GABAB antagonist) and the alpha-methyl-p-tyrosine (inhibitor of the synthesis of cathecolamines).
In agreement with the standard procedures known by the person skilled in the art, the doses used for any antagonist were the minimum required to prevent the analgesia induced by morphine (7 mg/kg SC) (1, 100 e 200 mg/kg IP), baclofen (4 mg/kg SC) and amphetamine (1 mg/kg SC) (non-reported data) respectively.

[1] = dose (naloxone 1, CGP 35348 100, alpha-M-p-T 200, atropine 5 mg/kg, HC-3 1 μg, pirenzepine 0.1 μg, S-(−)-ET-126 0.1 μg ICV), before treatment

Row | Structure (SMILES) | antagonism of the analgesia induced by acetyl L-carnitine | Hot plate Licking latency (after treatment 15 min) [s] | Hot plate Licking latency (after treatment 30 min) [s] | Hot plate Licking latency (after treatment 45 min) [s] | Hot plate Licking latency [1] [s]
1 | C[N+]1(C)CCOC(O)(c2ccc(-c3ccc(C4(O)C[N+](C)(C)CCO4)cc3)cc2)C1.[Br-].[Br-] (centres unmarked) [HC-3, hemicholinium-3, reference compound] | capable to antagonize the increase of the pain threshold | 13.7 ± 1.1 | 15.4 ± 1.2 | 13.1 ± 1.9 | 14.1 ± 0.9
2 | CCOC(OCC)P(=O)(O)CCCN [CGP 35348, reference compound] | – | 12.4 ± 1.0 | 12.6 ± 1.3 | 12.2 ± 1.6 | 14.4 ± 0.8
3 | CN1CCC(OC(=O)[C@H](CO)c2ccccc2)CC1 [S-(−)-ET-126, reference compound] | capable to antagonize the increase of the pain threshold | 15.3 ± 1.8 | 16.2 ± 1.9 | 16.1 ± 2.0 | 15.0 ± 1.0
4 | CN1[C@@H]2CC[C@H]1C[C@@H](OC(=O)C(CO)c1ccccc1)C2 (some centres unmarked) [Atropine, atropine, reference compound] | capable to antagonize the increase of the pain threshold | 13.7 ± 1.1 | 15.4 ± 1.2 | 13.1 ± 1.9 | 14.1 ± 0.9
5 | CN1CCN(CC(=O)N2c3ccccc3C(=O)Nc3cccnc32)CC1 [Pirenzepine, pirenzepine, reference compound] | capable to antagonize the increase of the pain threshold | 13.9 ± 1.5 | 14.5 ± 1.8 | 15.5 ± 1.5 | 13.6 ± 0.8
6 | C=CCN1CC[C@]23c4c5ccc(O)c4O[C@H]2C(=O)CC[C@@]3(O)[C@H]1C5 [Naloxone, naloxone, reference compound] | – | 13.3 ± 1.3 | 13.1 ± 1.1 | 14.2 ± 1.3 | 14.0 ± 0.7
7 | CC(N)(Cc1ccc(O)cc1)C(=O)O (stereo not drawn) [Alpha-M-p-T, alpha-methyl-p-tyrosine, reference compound] | – | 15.4 ± 1.6 | 16.1 ± 1.8 | 13.6 ± 1.5 | 14.6 ± 0.9
